Values joined by “and” are separate entries in the source; they are usually repeats but may differ in a detail not shown here. Equal values may be shown once. Read-outs that look alike come from different tables or passages of the source.
How the values were obtained:
[1] = tested on: subcutaneous 9L gliosarcoma tumors
Procedure: Biodistribution studies were performed with both enantiomers, (R)-[^18F]4 and (S)-[^18F]4, using Fischer 344 rats (Charles River Laboratories, Wilmington Mass., USA) implanted with subcutaneous 9L gliosarcoma tumors. The tumors were implanted by subcutaneous injection of a suspension of approximately 1×10^69L gliosarcoma cells into the flanks of the rats. The tumors were allowed to grow for 3 weeks prior to the study. The rats were allowed food and water ad libitum prior to the biodistribution study. Anesthesia was achieved using a mixture of 1% isoflurane in oxygen, and the radiolabeled amino acid (R)-[^18F]4 or (S)-[^18F]4 was injected intravenously through a tail vein. The animals were euthanized in groups of four for each enantiomer at 5, 30 or 60 minutes after injection. The organs and tissues of interest and the tumors were dissected and weighed, and the amounts of activity were measured and decay corrected to the time of injection with a gamma counter. Standards for the doses were also measured with a gamma counter, and the data were normalized as the percent of total dose per gram of tissue (% ID/g) for each sample. The data were analyzed using GraphPad Prism software with 1-way ANOVAs for each enantiomer at each time point with Bonferroni post-tests. The tumor and brain uptake of radioactivity was directly compared for both enantiomers at each time point with a 2-way ANOVA with Bonferroni post-test. p-values less than or equal to 0.05 were considered statistically significant.

[2] = tested on: subcutaneous 9L gliosarcoma tumor
Procedure: (§1) MicroPET imaging studies were performed in 2 rats implanted with subcutaneous 9L tumors and 1 rat implanted with an intracranial tumor. The subcutaneous implantations were performed as in the biodistribution studies except that the tumors were allowed to grow for 11 days prior to imaging. The intracranial tumor was implanted in the left midcerebrum using a template method as described previously in La Regina, M. C., et al., Lab. Anim. 34: 265-271, 2000, using a total of 5×10^4 cells suspended in 5 µL total volume. […] Computed axial tomography (CT) images were acquired with a MicroCAT II System (ImTek Inc., Knoxville, Tenn.), and PET data were acquired with MicroPET-FOCUS 120 and 220 scanners (Concorde MicroSystems Knoxville Tenn., USA) for 120 minutes after the intravenous tail vein injection of 0.24 to 0.31 mCi of (S)-[^18F]4. The PET and CT images were fused and analyzed using an Amira software package (Carlsbad Calif., USA), and time-activity curves were generated using ASIPro PET data analysis software (Concorde MicroSystems, Knoxville Tenn., USA).

[3] = tested on: intracranial 9L gliosarcoma tumor
Procedure: as §1

[4] = post injection, subcutaneous tumor
[5] = post injection, intracranial tumor

**Q.** `Cl.N[C@@H](Cc1cn(CC[18F])nn1)C(=O)O` [(S)-[^18F]4, (S)-2-amino-3-[1-(2-fluoroethyl)-1H-[1,2,3]triazol-4-yl]propanoic acid hydrochloride salt-[^18F]] was tested. Which “biodistribution: blood” value ([1]; 5 min after i.v. injection) did it give?
**A.** 0.98 ± 0.152 % ID/g

**Q.** What about the “biodistribution: bone” value ([1]; 5 min after i.v. injection) of the same compound?
**A.** 0.47 ± 0.065 % ID/g

**Q.** What about the “biodistribution: brain” value ([1]; 5 min after i.v. injection) of the same compound?
**A.** 0.08 ± 0.011 % ID/g

**Q.** And the “biodistribution: fat” value ([1]; 5 min after i.v. injection)?
**A.** 0.09 ± 0.020 % ID/g

**Q.** And the “biodistribution: heart” value ([1]; 5 min after i.v. injection)?
**A.** 0.43 ± 0.048 % ID/g

**Q.** And the “biodistribution: kidney” value ([1]; 5 min after i.v. injection)?
**A.** 11.02 ± 1.224 % ID/g

**Q.** What about the “biodistribution: large intestine” value ([1]; 5 min after i.v. injection) of the same compound?
**A.** 0.14 ± 0.012 % ID/g

**Q.** And the “biodistribution: liver” value ([1]; 5 min after i.v. injection)?
**A.** 0.34 ± 0.035 % ID/g

**Q.** And the “biodistribution: lung” value ([1]; 5 min after i.v. injection)?
**A.** 0.87 ± 0.117 % ID/g

**Q.** What about the “biodistribution: muscle” value ([1]; 5 min after i.v. injection) of the same compound?
**A.** 0.18 ± 0.030 % ID/g

**Q.** And the “biodistribution: pancreas” value ([1]; 5 min after i.v. injection)?
**A.** 2.75 ± 0.634 % ID/g

**Q.** And the “biodistribution: salivary gland” value ([1]; 5 min after i.v. injection)?
**A.** 0.74 ± 0.043 % ID/g

**Q.** And the “biodistribution: small intestine” value ([1]; 5 min after i.v. injection)?
**A.** 0.69 ± 0.076 % ID/g

**Q.** What about the “biodistribution: spleen” value ([1]; 5 min after i.v. injection) of the same compound?
**A.** 0.72 ± 0.054 % ID/g

**Q.** And the “biodistribution: testes” value ([1]; 5 min after i.v. injection)?
**A.** 0.21 ± 0.013 % ID/g

**Q.** What about the “biodistribution: thyroid” value ([1]; 5 min after i.v. injection) of the same compound?
**A.** 0.71 ± 0.117% of total dose per organ

**Q.** What about the “biodistribution: tumor” value ([1]; 5 min after i.v. injection) of the same compound?
**A.** 0.47 ± 0.069 % ID/g

**Q.** And the “tumor:brain ratio” value ([1]; 5 min after i.v. injection)?
**A.** 5.9

**Q.** And the “tumor bone (femur) ratio” value ([1]; 30 min, biodistribution study)?
**A.** 2.3

**Q.** And the “tumor to muscle ratio” value ([1]; 30 min, biodistribution study)?
**A.** 4.7

**Q.** And the “biodistribution: blood” value ([1]; 30 min after i.v. injection)?
**A.** 0.47 ± 0.101 % ID/g

**Q.** What about the “biodistribution: bone” value ([1]; 30 min after i.v. injection) of the same compound?
**A.** 0.36 ± 0.068 % ID/g

**Q.** And the “biodistribution: brain” value ([1]; 30 min after i.v. injection)?
**A.** 0.06 ± 0.008 % ID/g

**Q.** And the “biodistribution: fat” value ([1]; 30 min after i.v. injection)?
**A.** 0.05 ± 0.010 % ID/g

**Q.** And the “biodistribution: heart” value ([1]; 30 min after i.v. injection)?
**A.** 0.38 ± 0.066 % ID/g

**Q.** And the “biodistribution: kidney” value ([1]; 30 min after i.v. injection)?
**A.** 11.41 ± 1.939 % ID/g

**Q.** What about the “biodistribution: large intestine” value ([1]; 30 min after i.v. injection) of the same compound?
**A.** 0.15 ± 0.028 % ID/g

**Q.** And the “biodistribution: liver” value ([1]; 30 min after i.v. injection)?
**A.** 0.43 ± 0.091 % ID/g

**Q.** And the “biodistribution: lung” value ([1]; 30 min after i.v. injection)?
**A.** 0.83 ± 0.179 % ID/g

**Q.** And the “biodistribution: muscle” value ([1]; 30 min after i.v. injection)?
**A.** 0.18 ± 0.037 % ID/g

**Q.** And the “biodistribution: pancreas” value ([1]; 30 min after i.v. injection)?
**A.** 2.20 ± 0.747 % ID/g

**Q.** What about the “biodistribution: salivary gland” value ([1]; 30 min after i.v. injection) of the same compound?
**A.** 0.66 ± 0.139 % ID/g

**Q.** What about the “biodistribution: small intestine” value ([1]; 30 min after i.v. injection) of the same compound?
**A.** 0.54 ± 0.073 % ID/g

**Q.** And the “biodistribution: spleen” value ([1]; 30 min after i.v. injection)?
**A.** 0.75 ± 0.123 % ID/g

**Q.** What about the “biodistribution: testes” value ([1]; 30 min after i.v. injection) of the same compound?
**A.** 0.17 ± 0.033 % ID/g

**Q.** What about the “biodistribution: thyroid” value ([1]; 30 min after i.v. injection) of the same compound?
**A.** 0.44 ± 0.102% of total dose per organ

**Q.** And the “biodistribution: tumor” value ([1]; 30 min after i.v. injection)?
**A.** 0.83 % ID/g and 0.83 ± 0.142 % ID/g

**Q.** What about the “tumor:brain ratio” value ([1]; 30 min after i.v. injection) of the same compound?
**A.** 14.6

**Q.** And the “tumor to lung ratio” value ([1]; 60 min)?
**A.** 1.3

**Q.** What about the “tumor to spleen ratio” value ([1]; 60 min) of the same compound?
**A.** 1.5

**Q.** And the “tumor to normal tissue ratios” value ([1]; 60 min, except in the lung and the spleen)?
**A.** at least 2

**Q.** And the “biodistribution: blood” value ([1]; 60 min after i.v. injection)?
**A.** 0.23 ± 0.015 % ID/g

**Q.** What about the “biodistribution: bone” value ([1]; 60 min after i.v. injection) of the same compound?
**A.** 0.23 ± 0.011 % ID/g

**Q.** What about the “biodistribution: brain” value ([1]; 60 min after i.v. injection) of the same compound?
**A.** 0.05 ± 0.001 % ID/g

**Q.** What about the “biodistribution: fat” value ([1]; 60 min after i.v. injection) of the same compound?
**A.** 0.04 ± 0.007 % ID/g

**Q.** And the “biodistribution: heart” value ([1]; 60 min after i.v. injection)?
**A.** 0.30 ± 0.011 % ID/g

**Q.** And the “biodistribution: kidney” value ([1]; 60 min after i.v. injection)?
**A.** 4.79 ± 0.378 % ID/g

**Q.** What about the “biodistribution: large intestine” value ([1]; 60 min after i.v. injection) of the same compound?
**A.** 0.10 ± 0.012 % ID/g

**Q.** What about the “biodistribution: liver” value ([1]; 60 min after i.v. injection) of the same compound?
**A.** 0.32 ± 0.021 % ID/g

**Q.** And the “biodistribution: lung” value ([1]; 60 min after i.v. injection)?
**A.** 0.56 ± 0.085 % ID/g

**Q.** What about the “biodistribution: muscle” value ([1]; 60 min after i.v. injection) of the same compound?
**A.** 0.16 ± 0.006 % ID/g

**Q.** And the “biodistribution: pancreas” value ([1]; 60 min after i.v. injection)?
**A.** 1.12 ± 0.151 % ID/g

**Q.** What about the “biodistribution: salivary gland” value ([1]; 60 min after i.v. injection) of the same compound?
**A.** 0.36 ± 0.037 % ID/g

**Q.** What about the “biodistribution: small intestine” value ([1]; 60 min after i.v. injection) of the same compound?
**A.** 0.31 ± 0.024 % ID/g

**Q.** What about the “biodistribution: spleen” value ([1]; 60 min after i.v. injection) of the same compound?
**A.** 0.47 ± 0.035 % ID/g

**Q.** And the “biodistribution: testes” value ([1]; 60 min after i.v. injection)?
**A.** 0.11 ± 0.006 % ID/g

**Q.** What about the “biodistribution: thyroid” value ([1]; 60 min after i.v. injection) of the same compound?
**A.** 0.30 ± 0.024% of total dose per organ

**Q.** What about the “biodistribution: tumor” value ([1]; 60 min after i.v. injection) of the same compound?
**A.** 0.72 ± 0.098 % ID/g

**Q.** And the “tumor:brain ratio” value ([1]; 60 min after i.v. injection)?
**A.** 15.2

**Q.** And the “magnitude of tumor uptake compared with the (R)-enantiomer” value ([1]; at all 3 time points, p<0.001)?
**A.** higher

**Q.** What about the “maximal tumor to brain ratio” value ([1]; biodistribution study) of the same compound?
**A.** 15

**Q.** And the “tumor to bone (spinal column) ratio” value ([2]; 30 min, MicroPET)?
**A.** 2.5

**Q.** What about the “tumor to paraspinal muscle uptake ratio” value ([2]; 30 min, MicroPET) of the same compound?
**A.** approximately 5.0

**Q.** What about the “time of peak uptake in adjacent normal tissues” value ([2]; paraspinal muscle and spinal column, post injection) of the same compound?
**A.** ≤ 5 min

**Q.** And the “time of maximal tumor uptake” value [2, 4]?
**A.** 32.5 min

**Q.** And the “time of near maximal tumor uptake” value [2, 4]?
**A.** approximately 20 min

**Q.** What about the “maximal standard uptake value (SUV)” value ([2]; subcutaneous 9L tumor) of the same compound?
**A.** 1.6

**Q.** And the “maximal tumor to brain ratio” value ([3]; MicroPET study)?
**A.** approximately 9

**Q.** What about the “time of peak uptake in adjacent normal tissues” value ([3]; brain, post injection) of the same compound?
**A.** ≤ 5 min

**Q.** And the “maximal standard uptake value (SUV)” value ([3]; intracranial tumor)?
**A.** 1.1

**Q.** What about the “time of maximal tumor uptake” value [3, 5] of the same compound?
**A.** 27.5 min

**Q.** What about the “time of near maximal tumor uptake” value [3, 5] of the same compound?
**A.** approximately 20 min

Source: US8722014B2, “1 H-[1, 2, 3] triazole substituted amino acids and uses thereof” (Washington University, priority 2009, dated 2014)
